Assay [1] deals with T1, Human Prostatic Steroid 5α-Reductase (Homo sapiens, UniProt P31213).
T1 construct: Prostatic particles were obtained by differential centrifugation; from tissue; host or cells: frozen human prostates (hyperplastic), 140,000 × g particulate fraction
T1 sequence (P31213 1-254): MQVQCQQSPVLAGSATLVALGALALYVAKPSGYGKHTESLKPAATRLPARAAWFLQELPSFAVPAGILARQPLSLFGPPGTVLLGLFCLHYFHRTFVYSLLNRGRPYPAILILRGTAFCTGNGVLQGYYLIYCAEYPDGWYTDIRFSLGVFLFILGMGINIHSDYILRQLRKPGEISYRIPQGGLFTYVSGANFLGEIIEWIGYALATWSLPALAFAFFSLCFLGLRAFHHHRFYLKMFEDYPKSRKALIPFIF
The assay can be described thus: Inhibition of human steroid 5α-reductase using tissue from hyperplastic human prostates ([14C]-testosterone conversion, Dixon analysis). The class given is biochemical. How it is done:
Such diseases and conditions include acne vulgaris, seborrhea, female hirsutism, prostate diseases such as benign prostatic hypertrophy, and male pattern baldness. several compounds of the invention were tested for potency in inhibiting human steroid 5α-reductase using tissue from hyperplastic human prostates. In determining potency in inhibiting the human enzyme, the following procedure was employed:
Frozen human prostates were thawed and minced into small pieces (5 mm^3). The tissue was homogenized in 3 to 5 volumes of 20 mM potassium phosphate, pH 6.5, buffer containing 0.33 M sucrose, 1 mM dithiothreitol, and 50 μM NADPH with a Brinkmann Polytron (Sybron Corporation, Westbury, N.Y.). The solution was subjected to sonication for 3 to 5 minutes with a Sonifier (Branson Sonic Power Co.) followed by hand homogenization in a glass-to-glass Dounce homogenizer (Kontes Glass Company, Vineland, N.J.).
Prostatic particles were obtained by differential centrifugation at 600 to 1000 × g for 20 minutes and 140,000 × g for 60 minutes at 4° C. The pellet obtained from the 140,000 × g centrifugation was washed with 5 to 10 tissue volumes of the buffer described above and recentrifuged at 140,000 × g. The resulting pellet was suspended in 20 mM potassium phosphate buffer, pH 6 5, containing 20% glycerol, 1 mM dithiothreitol, and 50 μM NADPH. The suspended particulate solution was stored at -80° C.
A constant amount of [^14 C]-testosterone (52 to 55 mCi/mmol, New England Nuclear, Boston, Mass.) in ethanol and varying amounts of the potential inhibitor in ethanol were deposited in test tubes and concentrated to dryness in a SAVANT Speed Vac. To each tube was added buffer, 20 μl of 10 mM NADPH and an aliquot of prostatic particulate solution to a final volume of 1.0 ml of 50 mM sodium citrate, pH 5.0. After incubating the solution at 37° C. for 20 to 30 minutes the reaction was quenched by the addition of 4 ml ethyl acetate and 0.25 μmol each of testosterone, dihydrotestosterone, androst-aneidiol, and androst-anedione as carriers. The organic layer was removed to a second test tube and evaporated to dryness in a Speed Vac. The residue was dissolved in 20 to 30 μl chloroform, spotted on an individual lane of a 20×20 cm prechannelled silica gel TLC plate (Si 250F-PA, Baker Chemical) and developed twice with acetone:chloroform (1:9). The radiochemical content in the bands of the substrate and the products was determined with a BIOSCAN Imaging Scanner (Bioscan, Inc., Washington, D.C.). The percent of recovered radiolabel converted to product was calculated, from which enzyme activity was determined. All incubations were conducted such that no more than 12% of the substrate (testosterone) was consumed.
The experimentally obtained data was computer fitted to a linear function by plotting the reciprocal of the enzyme activity (1/velocity) against the variable inhibitor concentration (Dixon, M. (1953), Biochem. J., 55, 170). Assuming that the steroidal inhibitor is a competitive inhibitor against testosterone, a value for the inhibition constant (Ki) can be calculated from equation 1:
Ki =(B/A)/(S/Km +1) Equation 1

A further assay deals with steroid 5α-reductase. To be noted: cited from earlier work; for Reversible / Irreversible inhibition: Table 1, in words beside Ki; for pKi: Table 1, literature references.
Assay [2] has as its system human steroid 5α-reductase. To be noted: read-out: Km (Michaelis-Menton constant of the substrate); testosterone as substrate. From the text: where B is the intercept on the 1/velocity axis, A is the slope of the line, S is the concentration of substrate (testosterone) used in the experiment, and Km is the Michaelis-Menton constant of the substrate (testosterone)
The mark [3] stands for this setting: human prostatic particulate, pH 5.0, 37° C., 20 to 30 minutes, competitive inhibition against testosterone assumed, read-out: Ki , app.

pKi: −log10 of the molar value. Like-named read-outs stand apart in the source and are kept apart here.

The term pKi denotes the Ki on a negative log10 scale, so that one unit is a factor of ten. Consider `CC(C)N(C(=O)[C@H]1CC[C@H]2[C@@H]3CC=C4C=C([PH](=O)O)CC[C@]4(C)[C@H]3CC[C@]12C)C(C)C` [Example 1, 17β-N,N-Diisopropylcarboxamido-androst-3,5-diene-3-phosphinic acid], for which the negative-log Ki (pKi) in assay [1] (setting [3]) is 8.15. With `CC(C)N(C(=O)[C@H]1CC[C@H]2[C@@H]3CC[C@H]4CC([PH](=O)O)=CC[C@]4(C)[C@H]3CC[C@]12C)C(C)C` [Example 3, 17β-N,N-Diisopropylcarboxamide-5α-androst-2-ene-3-phosphinic Acid], the negative-log Ki (pKi) in assay [1] is 7.82. Regarding `CC(C)(C)NC(=O)[C@H]1CC[C@H]2[C@@H]3CC=C4C=C([PH](=O)O)CC[C@]4(C)[C@H]3CC[C@]12C` [Example 2, 17β-N-t-Butylcarboxamide-androst-3,5-diene-3-phosphinic acid], the negative-log Ki (pKi) in assay [1] (setting [3]) is 7.46. On the same count and under the same terms, then `CC(C)N(C(=O)[C@H]1CC[C@H]2[C@@H]3CC[C@H]4C=C([PH](=O)O)CC[C@]4(C)[C@H]3CC[C@]12C)C(C)C` [Example 5, 17β-N,N-Diisopropylcarboxamido-5α-androst-3-ene-3-phosphinic acid], with 7.60. `CC(=O)[C@H]1CC[C@H]2[C@@H]3CC=C=CC(=O)CCC(=O)[C@H]3CC[C@]12C`: in the assay on steroid 5α-reductase, the “Reversible / Irreversible inhibition” value is “Irreversible” and the pKi was 6.00. For the molecule `CC(C)N(C(=O)[C@H]1CC[C@H]2[C@@H]3CC=C4C=C(P(C)(=O)O)CC[C@]4(C)[C@H]3CC[C@]12C)C(C)C` [Example 9, 17β-N,N-diisopropylcarboxamido-androst-3,5-diene-3-methylphosphinic acid], the negative logarithm of the Ki (pKi) in assay [1] (setting [3]) is 7.26.

For the molecule `CC(C)N(C(=O)[C@H]1CC[C@H]2[C@@H]3CCC4=CC([PH](=O)O)=CC[C@]4(C)[C@H]3CC[C@]12C)C(C)C` [Example 7, 7β-N,N-Diisopropylcarboxamido-androst-2,4-diene-3-phosphinic acid], the negative logarithm of the Ki (pKi) in assay [1] was 7.70. Turning to `CC(CO)[C@H]1CC[C@H]2[C@@H]3CC[C@H]4C(=[N+]=[N-])C(=O)CC[C@]4(C)[C@H]3CC[C@]12C` (some centres unmarked), in the assay on steroid 5α-reductase, the “Reversible / Irreversible inhibition” value is listed as “Irreversible” and the pKi was 8.46. Further, the “time dependence of inhibition (in words)” value in the assay on steroid 5α-reductase (literature) was “potent, time-dependent inhibitor”. In the case of `C[C@]12CC[C@H]3[C@@H](CCC4=CC(=O)CC[C@@]43C)[C@@H]1CC[C@@H]2C(=O)O`, in the assay with steroid 5α-reductase, the “Reversible / Irreversible inhibition” value is “Reversible” and the pKi was 5.96. A word on the Km: it is the concentration of substrate that gives half-maximal velocity. `C[C@]12CC[C@H]3[C@@H](CCC4=CC(=O)CC[C@@]43C)[C@@H]1CC[C@@H]2O` [testosterone]: the Michaelis constant (Km) in assay [2] turned out to be 4.5 µM.

(Values after patent US5026882A, “Phosphinic acid substituted steroids as inhibitors of steroid 5α-reductase” (priority 1988, dated 1991).)
